Entries after “also recorded” stand apart in the source; their conditions may differ. Like-named read-outs stand apart in the source and are kept apart here.
Key:
[1] = Brain tissue pharmacokinetics of G–A after a single oral dose in ICR mice (HPLC, PKSolver); type: in vivo
Experimental: (§1) Eighty-eight mice were randomly divided into 11 groups with eight individuals each. All animals were orally administered with 200 mg/kg of G–A dissolved in 5% β-cyclodextrin solution. Under ether-induced anesthesia, blood samples were obtained from the retroorbital sinus with heparinized cannula at different times (0, 5, 10, 15, 30, 60, 120, 240, 480, 720, and 1,440 min) after G–A administration. The volume of the blood samples was of 700 to 1000 microliters, which were collected in heparinized centrifuge microtubes, after the blood was centrifuged for 5 min at 1,720 × g.
(§2) Plasma samples were frozen at −70 °C, and lyophilized after. The obtained dry product was used to extract and measure the amount of G–A. After obtaining blood samples, all animals were perfused with isotonic saline solution (ISS) via cardiac puncture; the femoral vein was used to eliminate the perfusion liquid, until it appeared clear. Subsequently, the brain was removed. The brains were weighed fresh and frozen at −70 °C and then lyophilized. Once dry, the brains were weighed again to determine the volume of water contained in each brain. Dry tissue was ground in a mortar, and G–A was later extracted.
(§3) Dry pulverized samples (plasma and brain) were extracted with methanol (HPLC grade, Merck). The extracts were filtered with a 0.45 μm, 13 mm Teflon membrane (Millex®-LCR), and 20 μL of filtrate were injected into the HPLC equipment. Measurements were performed in a Waters 2695 HPLC, with diode array detector (Waters 2996) and the Empower Pro 1.0 software. A Chromolith Performance® RP-18e 100 × 4.6 mm (Merck KGaA Darmstadt, Germany) was used. The mobile phase consisted of a mixture of acetonitrile:water (55:45, 1 mL/min). G–A concentration was obtained by comparison with a pre-built calibration curve at λ = 220 nm.
(§4) To evaluate the suitability of the assay for pharmacokinetic studies, 200 mg/kg of G–A was orally administered to mice. Eight animals were used in each group different times (0, 5, 10, 15, 30, 60, 120, 240, 480, 720, and 1440 min). Pharmacokinetic calculations were performed using the observed data. All data were subsequently processed using PKSolver add-in program for Microsoft Excel written in Visual Basic for Applications. […]
(§5) The pharmacokinetic model selection either one or two-comparment, were used both the Akaike information criterion (AIC) and Schwarz criterion (SC). Using the criteria, one may select the model with which to reach a lower value of AIC or SC, which means that the chosen model is more parsimonious (less parameters required) and best fits the data (low error prediction).

[2] = cited from earlier work
[3] = Plasma pharmacokinetics of G–A after a single oral dose in ICR mice (HPLC, PKSolver); type: in vivo; parameters: t1/2ka (absorption half time): unit not given here; settings: for AUC(0-inf) / Cmax / Tmax / AUC(0-t) / CL/F / MRT / Vd/F / k el: ICR, po, 200 mg/kg; for AUC(0-t): read-out: AUC0-1440 min (converted); for CL/F: read-out: CL/F (apparent clearance); for MRT: read-out: MRT (mean residence time) (converted); for Vd/F: read-out: V/F (apparent volume of distribution)
Experimental: as §1, §2, §3, §4, §5

[4] = Stability of G–A in mouse plasma under handling conditions; type: in vitro ADME; settings: for Observed Concentration ± S.D.: n = 6
Experimental: The stability of G–A in mice plasma and brain was assessed by analyzing replicates (n = 6) of QC samples at concentrations of 0.8, 4.0 and 10 μg/mL for mice plasma and brain. The investigation covered expected conditions during all of the sample storage and process periods, which included the stability data from freeze/thaw, bench-top, autosampler and long–term stability test. For all stability studies, freshly prepared and stability testing QC samples were evaluated by using freshly prepared standard curves for the measurement. The concentrations obtained from all stability studies were compared with the freshly prepared QC samples, and the percentage concentration deviation was calculated. The analytes were considered stable in mouse plasma and brain when the concentration difference between the freshly prepared samples and the stability samples was less than 15%.

[5] = brain tissue, oral 200 mg/kg, n = 8
[6] = mouse, brain tissue, oral 200 mg/kg, n = 8
[7] = mouse, plasma, one-compartment model, oral 200 mg/kg
[8] = mouse, plasma, plasma, one-compartment model, oral 200 mg/kg
[9] = mouse, plasma, plasma, two-compartment model, oral 200 mg/kg
[10] = mouse, plasma, two-compartment model, oral 200 mg/kg
[11] = plasma, one-compartment model, oral 200 mg/kg
[12] = plasma, two-compartment model, oral 200 mg/kg
[13] = plasma, 3 Freeze/thaw cycles (−70 °C), nominal 0.80 μg/mL
[14] = plasma, 3 Freeze/thaw cycles (−70 °C), nominal 4.00 μg/mL
[15] = plasma, 3 Freeze/thaw cycles (−70 °C), nominal 10.0 μg/mL
[16] = plasma, Autosampler stability (4 °C; 8 h), nominal 0.80 μg/mL
[17] = plasma, Autosampler stability (4 °C; 8 h), nominal 4.00 μg/mL
[18] = plasma, Long–term stability (−70 °C; 1 month), nominal 0.80 μg/mL
[19] = plasma, Long–term stability (−70 °C; 1 month), nominal 4.00 μg/mL
[20] = plasma, Long–term stability (−70 °C; 1 month), nominal 10.0 μg/mL

G–A Concentration Brain ([1]; 1440 min (24 h) after single oral 200 mg/kg, mean ± S.E.M., n = 8, 200 mg/kg): 0.32 ± 0.14 µg/mL | Tmax ([1]; ICR, mouse, brain, po, 200 mg/kg, brain tissue, oral 200 mg/kg, n = 8, read-out: Tmax (converted)): 1.36 h | A [1, 5]: 2.98 µg/mL | V/F [1, 5]: 68.16 (mg/kg)/(μg/mL) | k10 [1, 5]: 0.0008 min⁻¹ | ka [1, 5]: 0.051 min⁻¹ | Tmax ([1]; brain tissue, oral 200 mg/kg, n = 8, 200 mg/kg): 1.36 h | AUC(0-inf) [1, 6]: 58700 ng·h/mL | CL/F [1, 6]: 57 mL/min/kg | Cmax [1, 6]: 2740 ng/mL | MRT [1, 6]: 20.3 h | AUC(0-t) ([1]; mouse, brain tissue, oral 200 mg/kg, n = 8, read-out: AUC0-1440 min (converted)): 31900 ng·h/mL | concentration at 5 min ([1]; mouse, brain, 5 min after single oral 200 mg/kg, mean ± S.E.M., n = 8): 0 ng/mL | concentration at 10 min ([1]; mouse, brain, 10 min after single oral 200 mg/kg, mean ± S.E.M., n = 8): 880 ± 330 ng/mL | concentration at 15 min ([1]; mouse, brain, 15 min after single oral 200 mg/kg, mean ± S.E.M., n = 8): 1480 ± 580 ng/mL | concentration at 30 min ([1]; mouse, brain, 30 min after single oral 200 mg/kg, mean ± S.E.M., n = 8): 3440 ± 500 ng/mL | concentration at 60 min ([1]; mouse, brain, 60 min after single oral 200 mg/kg, mean ± S.E.M., n = 8): 3010 ± 590 ng/mL | concentration at 120 min ([1]; mouse, brain, 120 min after single oral 200 mg/kg, mean ± S.E.M., n = 8): 2500 ± 580 ng/mL | concentration at 240 min ([1]; mouse, brain, 240 min after single oral 200 mg/kg, mean ± S.E.M., n = 8): 2180 ± 480 ng/mL | concentration at 480 min ([1]; mouse, brain, 480 min after single oral 200 mg/kg, mean ± S.E.M., n = 8): 1780 ± 370 ng/mL | concentration at 720 min ([1]; mouse, brain, 720 min after single oral 200 mg/kg, mean ± S.E.M., n = 8): 550 ± 180 ng/mL | concentration at 1440 min ([1]; mouse, brain, 1440 min (24 h) after single oral 200 mg/kg, mean ± S.E.M., n = 8): 320 ng/mL | G–A Concentration Plasma ([3]; 5 min after single oral 200 mg/kg, mean ± S.E.M., n = 8, 200 mg/kg): 2.47 ± 0.43 µg/mL | AUC(0-inf) [3, 7]: 36200 ng·h/mL | Cmax [3, 7]: 3330 ng/mL | Tmax [3, 7]: 0.436 h | AUC(0-t) [3, 8]: 32500 ng·h/mL | CL/F [3, 8]: 92 mL/min/kg | MRT [3, 8]: 10.5 h | Vd/F [3, 8]: 57.6 L/kg | k el ([3]; mouse, plasma, plasma, one-compartment model, oral 200 mg/kg, read-out: k10 (apparent first-order elimination rate constant) (converted)): 2.67e-05 s⁻¹ | k el ([3]; mouse, plasma, plasma, one-compartment model, oral 200 mg/kg, read-out: k10 (elimination rate constant) (converted)): 2.67e-05 s⁻¹ | AUC(0-t) [3, 9]: 30400 ng·h/mL | CL/F [3, 9]: 98 mL/min/kg | MRT [3, 9]: 10.3 h | Vd/F [3, 9]: 55.5 L/kg | k el ([3]; mouse, plasma, plasma, two-compartment model, oral 200 mg/kg, read-out: k10 (apparent first-order elimination rate constant) (converted)): 2.83e-05 s⁻¹ | k el ([3]; mouse, plasma, plasma, two-compartment model, oral 200 mg/kg, read-out: k10 (elimination rate constant) (converted)): 2.83e-05 s⁻¹ | AUC(0-inf) [3, 10]: 33800 ng·h/mL | Cmax [3, 10]: 3420 ng/mL | Tmax [3, 10]: 0.456 h | concentration at 5 min ([3]; mouse, plasma, 5 min after single oral 200 mg/kg, mean ± S.E.M., n = 8): 2470 ng/mL | concentration at 10 min ([3]; mouse, plasma, 10 min after single oral 200 mg/kg, mean ± S.E.M., n = 8): 2570 ± 520 ng/mL | concentration at 15 min ([3]; mouse, plasma, 15 min after single oral 200 mg/kg, mean ± S.E.M., n = 8): 2790 ± 790 ng/mL | concentration at 30 min ([3]; mouse, plasma, 30 min after single oral 200 mg/kg, mean ± S.E.M., n = 8): 3700 ± 700 ng/mL | concentration at 60 min ([3]; mouse, plasma, 60 min after single oral 200 mg/kg, mean ± S.E.M., n = 8): 3440 ± 350 ng/mL | concentration at 120 min ([3]; mouse, plasma, 120 min after single oral 200 mg/kg, mean ± S.E.M., n = 8): 2950 ± 430 ng/mL | concentration at 240 min ([3]; mouse, plasma, 240 min after single oral 200 mg/kg, mean ± S.E.M., n = 8): 2330 ± 420 ng/mL | concentration at 480 min ([3]; mouse, plasma, 480 min after single oral 200 mg/kg, mean ± S.E.M., n = 8): 1440 ± 370 ng/mL | concentration at 720 min ([3]; mouse, plasma, 720 min after single oral 200 mg/kg, mean ± S.E.M., n = 8): 960 ± 210 ng/mL | concentration at 1440 min ([3]; mouse, plasma, 1440 min after single oral 200 mg/kg, mean ± S.E.M., n = 8): 310 ± 20 ng/mL | Plasma area under the G–A concentration time curve ([3]; one-compartment model, oral 200 mg/kg): 2,170 μg·min·mL^−1 | Time to detection in plasma after oral administration ([3]; oral 200 mg/kg): ≤ 5 min | A (G–A plasma concentration in central compartment) [3, 11]: 3.50 µg/mL | ka (apparent first-order absorption rate constant) [3, 11]: 0.182 min⁻¹ | t1/2ka (absorption half time) [3, 11]: 3.79 | A (G–A plasma concentration in central compartment) [3, 12]: 1.83 µg/mL | B (G–A plasma concentration in peripheral compartment) [3, 12]: 1.82 µg/mL | k12 (transfer rate constant central to peripheral compartment) [3, 12]: 0.00017 min⁻¹ | k21 (transfer rate constant peripheral to central compartment) [3, 12]: 0.00195 min⁻¹ | ka (apparent first-order absorption rate constant) [3, 12]: 0.164 min⁻¹ | t1/2ka (absorption half time) [3, 12]: 4.22 | α [3, 12]: 0.0025 min⁻¹ | β [3, 12]: 0.0014 min⁻¹ | Plasma area under the G–A concentration time curve ([3]; two-compartment model, oral 200 mg/kg): 2,030 μg·min·mL^−1 | Time analyzable in the autosampler tray with acceptable precision and accuracy ([4]; plasma samples, 4 °C): over 8 h | Long-term storage stability (time stable) ([4]; plasma samples, −70 °C): over 1 month | Accuracy Bias [4, 13]: −1.00% | Observed Concentration ± S.D. [4, 13]: 0.79 ± 0.08 µg/mL | Accuracy Bias [4, 14]: 0.25% | Observed Concentration ± S.D. [4, 14]: 4.01 ± 0.14 µg/mL | Accuracy Bias [4, 15]: −0.70% | Observed Concentration ± S.D. [4, 15]: 9.93 ± 0.67 µg/mL | Accuracy Bias [4, 16]: 3.75% | Observed Concentration ± S.D. [4, 16]: 0.83 ± 0.05 µg/mL | Accuracy Bias [4, 17]: −1.75% | Observed Concentration ± S.D. [4, 17]: 3.93 ± 0.43 µg/mL | Observed Concentration ± S.D. ([4]; plasma, Autosampler stability (4 °C; 8 h), nominal 10.0 μg/mL): 10.10 ± 0.85 µg/mL | Accuracy Bias [4, 18]: −3.00% | Observed Concentration ± S.D. [4, 18]: 0.77 ± 0.06 µg/mL | Accuracy Bias [4, 19]: 6.50% | Observed Concentration ± S.D. [4, 19]: 4.26 ± 0.31 µg/mL | Accuracy Bias [4, 20]: −5.70% | Observed Concentration ± S.D. [4, 20]: 9.43 ± 0.83 µg/mL | Freeze/thaw stability ([4]; plasma, three cycles, stored at −70 °C and thawed to room temperature): stable
Structure (SMILES): COC(=O)[C@@]12CC[C@]3(C)C([C@H](O)[C@H](O)[C@@]4([C@@H](C)O)COC(=O)C=C[C@H]43)[C@@]1(C)CC[C@@]1(C)CC=C(C)C[C@]12O (stereo partly drawn) [G–A, galphimine-A]
Anxiolytic effect ([2]; 15 mg/kg dose administered intraperitoneally): anxiolytic effects | Anxiolytic activity ([2]; among the galphimines): most active; also recorded: highest anxiolytic activity
